Structures can show the parent of a compound that is named as a salt. Numbered stars: 1 amine (or outer) side, 2 acyl side, 3 side chain; on linkers, the order of the positions; unused ones are H or OH. Bridge positions count the residues as written; N and C are the ends. Peptide text beside a SMILES is read from it. X2 = O=C(CCC[*:2])[*:1]

For assay [1], the system named is NCI-H292 lung cancer cells. The assay is described as follows: FDA drug screening, complete media vs cholesterol-free media without statin (TABLE 1). It is filed as cell-based, human.
For assay [2], the system named is NCI-H292 lung cancer cells. As to the kind of experiment: FDA drug screening, complete media vs cholesterol-free media with simvastatin (TABLE 2). It is filed as cell-based, human. Conditions: for Cholesterol-free media + simvastatin (0.04 μM) / Complete Media: NCI-H292 cells.
Where [3] appears, read: NCI-H292 cells, cholesterol-free media without statin.
[4] abbreviates: FDA drug library screen, cholesterol-free media with simvastatin 0.04 μM.
Where [5] appears, read: FDA drug library screen, complete media.
Setting [6] is: NCI-H292 cells, cholesterol-free media without statin, FDA drug library screen.
[7] abbreviates: NCI-H292 cells, complete media, FDA drug library screen.
The mark [8] stands for this setting: complete vs cholesterol-free media, >0 enhanced anti-cancer activity, about 0 neutral, <0 antagonist.
[9] abbreviates: drug in cholesterol-free media with simvastatin 0.04 μM.
Setting [10] is: complete media vs cholesterol-free media + simvastatin (0.04 μM), >0 enhanced anti-cancer activity, about 0 neutral, <0 antagonist.
The mark [11] stands for this setting: complete vs cholesterol-free media, greater than 0 enhanced anti-cancer activity, about 0 neutral, below 0 antagonists.
The mark [12] stands for this setting: cholesterol-free media with simvastatin 0.04 μM, cell growth value in FDA drug screen.
The mark [13] stands for this setting: complete media, cell growth value in FDA drug screen.
The mark [14] stands for this setting: complete media minus cholesterol-free media + simvastatin, >0 enhanced anti-cancer activity, about 0 neutral, <0 antagonist.
Where [15] appears, read: FDA library drug in complete media.

Turning to `CC[C@H](C)[C@@H]1NC(=O)[C@H](Cc2ccc(OC)cc2)NC(=O)CCCSC[C@@H](C(=O)N2CCC[C@H]2C(=O)N[C@@H](CC(C)C)C(=O)NCC(N)=O)NC(=O)[C@H](CC(N)=O)NC(=O)[C@H](CCC(N)=O)NC1=O` [Carbetocin] (Y(Me)IQNCPLG-NH2; linker N-5 via X2), the Difference in assay [1] (Complete minus Cholesterol-free, […]) is recorded as −0.26; in assay [2] (complete media minus cholesterol-free media + simvastatin, […]), 0.16. Also, the Cholesterol-free in assay [1] (setting [3]) is listed as 1.283. Besides, the Complete in assay [1] (NCI-H292 cells, complete media) is on record as 1.021. In addition, the “Cholesterol-free media + simvastatin (0.04 μM)” value in assay [2] (setting [4]) is 1.6. Further, the “Complete Media” value in assay [2] (setting [5]) came to 1.76.

Consider `N=C(N)N` [Guanidine (hydrochloride)], for which the Cholesterol-free in assay [1] (setting [6]) came to 0.9919. The same compound showed a Complete in assay [1] (setting [7]) of 1.237. For the same compound, the Difference in assay [1] (setting [8]) is listed as 0.24; in assay [2] (setting [10]) it was −0.21. Also, the “Cholesterol-free media + simvastatin (0.04 μM)” value in assay [2] (setting [9]) stood at 1.136. For the same compound, the “Complete Media” value in assay [2] (drug in complete media) was 0.9286.

In assay [1] (setting [3]), `C[C@H](O)C(=O)O` [L-Lactic acid] gave a Cholesterol-free of 1.267. In assay [1] (NCI-H292 cells, complete media), the Complete is 0.8145. Further, the Difference in assay [1] (setting [11]) is on record as −0.45; in assay [2] (setting [10]), −0.19. For the same compound, the “Cholesterol-free media + simvastatin (0.04 μM)” value in assay [2] (setting [9]) is 1.063. In addition, in assay [2] (drug in complete media), the “Complete Media” value came to 0.8704.

`O=C(N/N=C/c1ccc([N+](=O)[O-])o1)c1ccc(O)cc1` [Nifuroxazide]: the Difference in assay [1] (Complete minus Cholesterol-free, >0 enhanced anti-cancer activity, about 0 neutral, <0 antagonist) is −0.04; in assay [2] (setting [14]), 0.10. The same compound displayed a Cholesterol-free in assay [1] (setting [6]) of 0.9553. Further, the Complete in assay [1] (setting [7]) is 0.9139. The “Cholesterol-free media + simvastatin (0.04 μM)” value in assay [2] (setting [12]) is 1.161. Besides, in assay [2] (setting [13]), the “Complete Media” value came out at 1.265.

Compound Bretylium (tosylate) came in with a Cholesterol-free in assay [1] (setting [6]) of 0.5154. This compound also registered a Complete in assay [1] (setting [7]) of 0.751. The Difference in assay [1] (setting [8]) is listed as 0.24; in assay [2] (setting [10]), −0.40. The “Complete Media” value in assay [2] (setting [15]) stood at 0.8163.

Take `O=C1c2c(O)cccc2Cc2cccc(O)c21` [Dithranol]: the Cholesterol-free in assay [1] (setting [3]) amounted to 1.314. The compound also yielded a Complete in assay [1] (NCI-H292 cells, complete media) of 0.9897. In addition, the Difference in assay [1] (setting [11]) is −0.32; in assay [2] (setting [14]), 0.08. Moreover, the “Cholesterol-free media + simvastatin (0.04 μM)” value in assay [2] (setting [12]) turned out to be 0.8476. The “Complete Media” value in assay [2] (setting [13]) came out at 0.9249.

In the case of `CN1CCCN=C1/C=C/c1cccs1.O=C(O)c1cc2ccccc2c(Cc2c(O)c(C(=O)O)cc3ccccc23)c1O` [Pyrantel (pamoate)], in assay [1] (setting [6]), the Cholesterol-free is reported as 1.079. The Complete in assay [1] (setting [7]) is reported as 1.203. Further, the Difference in assay [1] (setting [8]) is reported as 0.12; in assay [2] (setting [10]), −0.40. Further, in assay [2] (FDA library drug in cholesterol-free media with simvastatin 0.04 μM), the “Cholesterol-free media + simvastatin (0.04 μM)” value is reported as 1.254. In addition, in assay [2] (setting [15]), the “Complete Media” value stood at 0.856.

Consider `O=C(CCCCCCC(=O)Nc1ccccc1)NO` [Vorinostat], for which the Difference in assay [1] (Complete minus Cholesterol-free, greater than 0 enhanced anti-cancer activity, about 0 neutral, below 0 antagonist) is −0.17; in assay [2] (setting [10]) it was −0.24. Besides, the Cholesterol-free in assay [1] (NCI-H292 cells, FDA drug library screen, cholesterol-free media without statin) was 0.4861. For the same compound, in assay [1] (NCI-H292 cells, FDA drug library screen, complete media), the Complete is recorded as 0.3154. For the same compound, the “Cholesterol-free media + simvastatin (0.04 μM)” value in assay [2] (setting [9]) was found to be 0.872. For the same compound, the “Complete Media” value in assay [2] (drug in complete media) was 0.635.

In turn, `COc1ccc(-c2ccc3cc(C(=O)O)ccc3c2)cc1C12CC3CC(CC(C3)C1)C2` [Adapalene] returned a Cholesterol-free in assay [1] (setting [6]) of 0.6976. For the same compound, the Complete in assay [1] (setting [7]) was determined as 1.022. Besides, the Difference in assay [1] (setting [8]) amounted to 0.32; in assay [2] (complete media minus cholesterol-free media + simvastatin (0.04 μM), >0 enhanced anti-cancer activity, about 0 neutral, <0 antagonist), 0.00. Moreover, the “Cholesterol-free media + simvastatin (0.04 μM)” value in assay [2] (cholesterol-free media with simvastatin 0.04 μM, FDA drug library screen (TABLE 2)) turned out to be 0.9237. Also, the “Complete Media” value in assay [2] (complete media, FDA drug library screen (TABLE 2)) was 0.9286.

As to `COc1cccc(-c2c(C)n(Cc3c(F)cccc3C(F)(F)F)c(=O)n(C[C@H](NCCCC(=O)O)c3ccccc3)c2=O)c1F` [Elagolix sodium], the Difference in assay [1] (Complete minus Cholesterol-free, greater than 0 enhanced anti-cancer activity, about 0 neutral, below 0 antagonists) is recorded as −0.93; in assay [2] (setting [14]), 0.21. The compound also showed a Cholesterol-free in assay [1] (NCI-H292 cells in cholesterol-free media without statin) of 1.728. Moreover, in assay [1] (NCI-H292 cells in complete media), the Complete is 0.7978. In addition, the “Cholesterol-free media + simvastatin (0.04 μM)” value in assay [2] (setting [4]) came to 1.413. Further, the “Complete Media” value in assay [2] (setting [5]) was 1.627.

Source of the values: US20250144067A1, “PERSONALIZED STARVATION THERAPY FOR CANCER” (Faeth Therapeutics, Inc., priority 2021, published 2025).
